Measurements from patent US10681909B2, “Herbicidal triazoles” (FMC Corporation, priority 2014, dated 2020).

How the values were obtained:
crabgrass, large = assay: Test A postemergence; assay type: in vivo, Digitaria sanguinalis; conditions: Digitaria sanguinalis, post-emergence, 240 h, 0 to 100 scale (0 no effect, 100 complete control), approx. 10 d, read-out: Plant response rating, Crabgrass, Large; for pest or weed control at 125 g/ha: 125 g ai/ha; for pest or weed control at 500 g/ha: 500 g ai/ha
How it was run: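 Herbicidal response was scored on plants treated pre- or postemergence with surfactant-containing, non-phytotoxic solvent formulations. Preemergence meant a directed spray onto soil (loam–sand) holding sown seed; postemergence plants were at one to two leaves.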

galium [1] = assay: Test C preemergence; assay type: in vivo, Galium aparine; conditions: for Plant response rating (scale of 0 to 100 where 0 is no effect and 100 is complete control): Galium, preemergence; for Galium plant response rating (0 to 100): Preemergence, visual rating after 13 to 15 d
Excerpt: (§1) Seeds of plant species selected from blackgrass (Alopecurus myosuroides), ryegrass, Italian (Italian ryegrass, Lolium multiflorum), wheat (winter wheat, Triticum aestivum), galium (catchweed bedstraw, Galium aparine), corn (Zea mays), crabgrass, large (large crabgrass, Digitaria sanguinalis), foxtail, giant, (giant foxtail, Setaria faberii), johnsongrass (Sorghum halepense), lambsquarters (Chenopodium album), morningglory (Ipomoea coccinea), nutsedge, yellow (yellow nutsedge, Cyperus esculentus), pigweed (Amaranthus retroflexus), ragweed (common ragweed, Ambrosia elatior), soybean (Glycine max), barnyardgrass (Echinochloa crus-galli), oilseed rape (Brassica napus), waterhemp (common waterhemp, Amaranthus rudis), and velvetleaf (Abutilon theophrasti) were planted into a blend of loam soil and sand and treated preemergence with test chemicals formulated in a non-phytotoxic solvent mixture which included a surfactant. At the same time, plants selected from these crop and weed species and also chickweed (common chickweed, Stellaria media), oat, wild (wild oat, Avena fatua), and kochia (Kochia scoparia), were planted in pots containing Sunshine Redi-Earth® planting medium comprising spaghnum peat moss, vermiculite, starter nutrients and dolomitic limestone and treated with postemergence applications of test chemicals formulated in the same manner. Plants ranged in height from 2 to 18 cm (1- to 4-leaf stage) for postemergence treatments. […] A dash (-) response means no test result.

chickweed = assay: Test D postemergence; assay type: in vivo, Stellaria media; conditions: scale 0 to 100
Excerpt: (§2) Seeds of plant species selected from bluegrass (annual bluegrass, Poa annua), blackgrass (Alopecurus myosuroides), canarygrass (Phalaris minor), chickweed (common chickweed, Stellaria media), galium (catchweed bedstraw, Galium aparine), bromegrass, down (downy bromegrass, Bromus tectorum), Russian thistle (Salsola kali), field poppy (Papaver rhoeas), field violet (Viola arvensis), foxtail, green (green foxtail, Setaria viridis), deadnettle (henbit deadnettle, Lamium amplexicaule), ryegrass, Ital. (Italian ryegrass, Lolium multiflorum), kochia (Kochia scoparia), lambsquarters (Chenopodium album), oilseed rape (Brassica napus), pigweed (Amaranthus retroflexus), chamomile (scentless chamomile, Matricaria inodora), speedwell (bird's-eye speedwell, Veronica persica), barley, spring (spring barley, Hordeum vulgare), wheat, spring (spring wheat, Triticum aestivum), buckwheat, wild (wild buckwheat, Polygonum convolvulus), wild mustard (Sinapis arvensis), oat, wild (wild oat, Avena fatua), radish, wild (wild radish, Raphanus raphanistrum), […]), barley, winter (winter barley, Hordeum vulgare), and wheat, winter (winter wheat, Triticum aestivum) were planted into a silt loam soil and treated preemergence with test chemicals formulated in a non-phytotoxic solvent mixture which included a surfactant. At the same time, these species were planted in pots containing Sunshine Redi-Earth® planting medium comprising spaghnum peat moss, vermiculite, starter nutrients and dolomitic limestone and treated with postemergence applications of the test chemicals formulated in the same manner. Plants ranged in height from 2 to 18 cm (1- to 4-leaf stage). Treated plants and controls were maintained in a controlled growth environment for 14 to 21 d after which time all species were compared to controls and visually evaluated. […] A dash (-) response means no test result.

field violet = assay: Test D postemergence; assay type: in vivo, Viola arvensis; conditions: scale 0 to 100
Excerpt: as §2

oilseed rape = assay: Test D postemergence; assay type: in vivo, Brassica napus; conditions: scale 0 to 100
Excerpt: as §2

barnyardgrass = assay: Test C preemergence; assay type: in vivo, Echinochloa crus-galli; conditions: for Plant response rating (scale of 0 to 100 where 0 is no effect and 100 is complete control): Barnyardgrass, preemergence; for Barnyardgrass plant response rating (0 to 100): Preemergence, visual rating after 13 to 15 d
Excerpt: as §1

foxtail, green = assay: Test D preemergence; assay type: in vivo, Setaria viridis; conditions: scale 0 to 100
Excerpt: as §2

ragweed = assay: Test A preemergence; assay type: in vivo, Ambrosia elatior; conditions: 0 to 100 scale (0 no effect, 100 complete control)
Excerpt: (§3) Seeds of plant species selected from barnyardgrass (Echinochloa crus-galli), crabgrass, large (large crabgrass, Digitaria sanguinalis), kochia (Kochia scoparia), ragweed (common ragweed, Ambrosia elatior), foxtail, giant (giant foxtail, Setaria faberii), morningglory (Ipomoea spp.), pigweed (Amaranthus retroflexus), velvetleaf (Abutilon theophrasti), ryegrass, Italian (Italian ryegrass, Lolium multiflorum), wheat (Triticum aestivum), and corn (Zea mays) were planted into a blend of loam soil and sand and treated preemergence with a directed soil spray using test chemicals formulated in a non-phytotoxic solvent mixture which included a surfactant.
(§4) At the same time, plants selected from these crop and weed species and also blackgrass (Alopecurus myosuroides), and galium (catchweed bedstraw, Galium aparine), were planted in pots containing the same blend of loam soil and sand and treated with postemergence applications of test chemicals formulated in the same manner. Plants ranged in height from 2 to 10 cm and were in the one- to two-leaf stage for the postemergence treatment. Treated plants and untreated controls were maintained in a greenhouse for approximately 10 d, after which time all treated plants were compared to untreated controls and visually evaluated for injury. Plant response ratings, summarized in Table A, are based on a 0 to 100 scale where 0 is no effect and 100 is complete control. A dash (-) response means no test result.

galium [2] = assay: Test A postemergence; assay type: in vivo, Galium aparine; conditions: 0 to 100 scale (0 no effect, 100 complete control), approx. 10 d
Excerpt: as §3, §4

Compound	pest or weed control at 125 g/ha (crabgrass, large) [%]	pest or weed control at 500 g/ha (crabgrass, large) [%]	Plant response rating (scale of 0 to 100 where 0 is no effect and 100 is complete control) (galium [1]; 125 g ai/ha)	Plant response rating (scale of 0 to 100 where 0 is no effect and 100 is complete control) (galium [1]; 250 g ai/ha)	Galium plant response rating (0 to 100) (galium [1]; 31 g ai/ha)	Galium plant response rating (0 to 100) (galium [1]; 62 g ai/ha)	Plant response rating (scale of 0 to 100 where 0 is no effect and 100 is complete control) (barnyardgrass; 125 g ai/ha)	Plant response rating (scale of 0 to 100 where 0 is no effect and 100 is complete control) (barnyardgrass; 250 g ai/ha)	Barnyardgrass plant response rating (0 to 100) (barnyardgrass; 31 g ai/ha)	Barnyardgrass plant response rating (0 to 100) (barnyardgrass; 62 g ai/ha)	Plant response rating, Ragweed (ragweed; 125 g ai/ha)	Plant response rating, Galium (galium [2]; 125 g ai/ha)	other results
CCc1nc(-c2ccc(C(F)(F)F)cc2)nn1Cc1ccnc(C(F)(F)F)c1 [Compound 1, 4-[[5-ethyl-3-[4-(trifluoromethyl)phenyl]-1H-1,2,4-triazol-1-yl]methyl]-2-(trifluoromethyl)pyridine]	100	100	100	100	70	98	55	70	10	35	–	–	Plant response rating: Chickweed (chickweed; 31 g ai/ha): 75; Plant response rating: Chickweed (chickweed; 62 g ai/ha): 80; Plant response rating: Chickweed (chickweed; 125 g ai/ha): 85; Plant response rating: Chickweed (chickweed; 250 g ai/ha): 90; Plant response rating: Field Violet (field violet; 31 g ai/ha): 100; Plant response rating: Field Violet (field violet; 62 g ai/ha): 100; Plant response rating: Field Violet (field violet; 125 g ai/ha): 100; Plant response rating: Field Violet (field violet; 250 g ai/ha): 100; Plant response rating: Oilseed Rape (oilseed rape; 31 g ai/ha): 70; Plant response rating: Oilseed Rape (oilseed rape; 62 g ai/ha): 80; Plant response rating: Oilseed Rape (oilseed rape; 125 g ai/ha): 100; Plant response rating: Oilseed Rape (oilseed rape; 250 g ai/ha): 100; Plant response rating: Foxtail, Green (foxtail, green; 62 g ai/ha): 100; Plant response rating: Foxtail, Green (foxtail, green; 125 g ai/ha): 100; Plant response rating: Foxtail, Green (foxtail, green; 250 g ai/ha): 100
Cn1nc(-c2ccc(F)cc2)nc1Oc1cccc(C(F)(F)F)c1 [Compound 5, 3-(4-fluorophenyl)-1-methyl-5-[3-(trifluoromethyl)phenoxy]-1H-1,2,4-triazole]	30	90	–	–	–	–	–	–	–	–	–	–	–
CCCc1nc(-c2ccc(F)cc2)nn1Cc1ccnc(C(F)(F)F)c1 [Compound 6, 4-[[3-(4-fluorophenyl)-5-propyl-1H-1,2,4-triazol-1-yl]methyl]-2-(trifluoromethyl)pyridine]	90	90	100	100	90	98	95	98	50	75	–	–	–
COc1nc(-c2ccc(F)cc2)nn1Cc1ccnc(C(F)(F)F)c1 [Compound 9, 4-[[3-(4-fluorophenyl)-5-methoxy-1H-1,2,4-triazol-1-yl]methyl]-2-(trifluoromethyl)pyridine]	90	100	90	98	5	5	70	85	5	35	–	–	–
Cn1nc(-c2ccc(F)cc2)nc1C(O)c1ccnc(C(F)(F)F)c1 (stereo not drawn) [Compound 14, α-[3-(4-fluorophenyl)-1-methyl-1H-1,2,4-triazol-5-yl]-2-(trifluoromethyl)-4-pyridinemethanol]	20	30	–	–	–	–	–	–	–	–	–	–	–
CCn1nc(-c2ccc(F)cc2)nc1C(O)c1ccnc(C(F)(F)F)c1 (stereo not drawn) [Compound 15, α-[1-Ethyl-3-(4-fluorophenyl)-1H-1,2,4-triazol-5-yl]-2-(trifluoromethyl)-4-pyridinemethanol]	0	10	–	–	–	–	–	–	–	–	–	–	–
CCCn1nc(-c2ccc(F)cc2)nc1Cc1ccnc(C(F)(F)F)c1 [Compound 17, 4-[[3-(4-fluorophenyl)-1-propyl-1H-1,2,4-triazol-5-yl]methyl]-2-(trifluoromethyl)pyridine]	90	90	–	–	–	–	–	–	–	–	–	–	–
CCn1nc(-c2ccc(F)cc2)nc1C(=O)c1ccnc(C(F)(F)F)c1 [Compound 19, [1-ethyl-3-(4-fluorophenyl)-1H-1,2,4-triazol-5-yl][2-(trifluoromethyl)-4-pyridinyl]methanone]	0	0	–	–	–	–	–	–	–	–	–	–	–
COc1nc(-c2ccc(C(F)(F)F)cc2)nn1Cc1ccnc(C(F)(F)F)c1 [Compound 25]	–	–	–	–	–	–	–	–	–	–	20	80	Plant response rating, Ragweed (ragweed; 31 g ai/ha): 10; Plant response rating, Galium (galium [2]; 31 g ai/ha): 60
CCOc1nc(-c2ccc(Cl)cc2)nn1Cc1ccnc(C(F)(F)F)c1 [Compound 26]	–	–	–	–	–	–	–	–	–	–	90	90	Plant response rating, Ragweed (ragweed; 31 g ai/ha): 60; Plant response rating, Galium (galium [2]; 31 g ai/ha): 60
CS(=O)(=O)c1nc(-c2ccc(F)cc2)nn1Cc1ccnc(C(F)(F)F)c1 [Compound 29, 4-[[3-(4-fluorophenyl)-5-(methylsulfonyl)-1H-1,2,4-triazole-1-yl]methyl]-2-(trifluoromethyl)pyridine]	0	0	–	–	–	–	–	–	–	–	–	–	–
COc1nc(-c2ccccc2)nn1Cc1ccnc(C(F)(F)F)c1 [Compound 32]	–	–	60	80	0	0	10	75	0	5	0	60	Plant response rating, Ragweed (ragweed; 500 g ai/ha): 40; Plant response rating, Galium (galium [2]; 500 g ai/ha): 90
CCCOc1nc(-c2ccccc2)nn1Cc1ccnc(C(F)(F)F)c1 [Compound 33]	–	–	–	–	–	–	–	–	–	–	20	70	Plant response rating, Ragweed (ragweed; 500 g ai/ha): 30; Plant response rating, Galium (galium [2]; 500 g ai/ha): 80
